From US20190315823A1, “SMALL CATIONIC ANTI-BIOFILM AND IDR PEPTIDES” (priority 2013, published 2019)
Ends that are not written are not given here.

tested on: methicillin resistant Staphylococcus aureus (MRSA) biofilm; test: not given; conditions: approximate peptide concentration […] (around 3 μg/ml); compared to untreated samples
Method in brief: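 Static biofilm assay: 1/100 dilutions of overnight cultures grown in BM2 medium (pH 7, glucose, Casamino Acids) or Luria Broth with peptide added at time zero. After 22–46 h, adherent biofilm was stained with crystal violet and read at 595 nm. Some peptides were also tested on K. pneumoniae under flow in a Bioflux system.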

| Substance | % Biofilm inhibition [%] |
| --- | --- |
| 1002-A6: single substituted 1002 peptide (VQRWLAVWRIRK-NH2) [Peptide 1002-A6] | 28 |
| 1018-Q12: single substituted 1018 peptide (VRLIVAVRIWRQ-NH2) [Peptide 1018-Q12] | 57 |
| HH2C-HH2N: derivative of HH2, 1002 and 1018 made by SPOT synthesis (VAVIRAVQLRIR-NH2) | 61 |
| HH2-I4: single substituted HH2 peptide (VQLIIRVAVIRA-NH2) | 47 |
| HH2-G8: single substituted HH2 peptide (VQLRIRVGVIRA-NH2) | 54 |
| HH2-V4: single substituted HH2 peptide (VQLVIRVAVIRA-NH2) | 60 |
| 1018-K7: single substituted 1018 peptide (VRLIVAKRIWRR-NH2) [Peptide 1018-K7] | 23 |
| HH2-A7: single substituted HH2 peptide (VQLRIRAAVIRA-NH2) | 57 |
| 1018-A4: single substituted 1018 peptide (VRLAVAVRIWRR-NH2) [Peptide 1018-A4] | 38 |
| 1002-L9: single substituted 1002 peptide (VQRWLIVWLIRK-NH2) [Peptide 1002-L9] | 57 |
| 1018-K3: single substituted 1018 peptide (VRKIVAVRIWRR-NH2) [Peptide 1018-K3] | 15 |
| HH2-R3: single substituted HH2 peptide (VQRRIRVAVIRA-NH2) | 0 |
| HH2-Q4: single substituted HH2 peptide (VQLQIRVAVIRA-NH2) | 45 |
| 1002-K6: single substituted 1002 peptide (VQRWLKVWRIRK-NH2) [Peptide 1002-K6] | 2 |
| 1018-Q8: single substituted 1018 peptide (VRLIVAVQIWRR-NH2) [Peptide 1018-Q8] | 51 |

tested on: LPS-stimulated human peripheral blood mononuclear cells (IL1-β); test: not given; type: cell-based; conditions: Table 12; cells stimulated with 10 ng/ml LPS

| Substance | Fold change in IL1β relative to no peptide LPS stimulated cells |
| --- | --- |
| 1002-A6: single substituted 1002 peptide (VQRWLAVWRIRK-NH2) [Peptide 1002-A6] | 0.16 |
| 1018-Q12: single substituted 1018 peptide (VRLIVAVRIWRQ-NH2) [Peptide 1018-Q12] | 0.50 |
| HH2C-HH2N: derivative of HH2, 1002 and 1018 made by SPOT synthesis (VAVIRAVQLRIR-NH2) | 0.31 |
| HH2-I4: single substituted HH2 peptide (VQLIIRVAVIRA-NH2) | 0.58 |
| HH2-G8: single substituted HH2 peptide (VQLRIRVGVIRA-NH2) | 1.02 |
| HH2-V4: single substituted HH2 peptide (VQLVIRVAVIRA-NH2) | 0.67 |
| 1018-K7: single substituted 1018 peptide (VRLIVAKRIWRR-NH2) [Peptide 1018-K7] | 0.93 |
| HH2-A7: single substituted HH2 peptide (VQLRIRAAVIRA-NH2) | 1.30 |
| 1018-A4: single substituted 1018 peptide (VRLAVAVRIWRR-NH2) [Peptide 1018-A4] | 0.40 |
| 1002-L9: single substituted 1002 peptide (VQRWLIVWLIRK-NH2) [Peptide 1002-L9] | 0.05 |
| 1018-K3: single substituted 1018 peptide (VRKIVAVRIWRR-NH2) [Peptide 1018-K3] | 1.13 |
| HH2-R3: single substituted HH2 peptide (VQRRIRVAVIRA-NH2) | 1.33 |
| HH2-Q4: single substituted HH2 peptide (VQLQIRVAVIRA-NH2) | 0.62 |
| 1002-K6: single substituted 1002 peptide (VQRWLKVWRIRK-NH2) [Peptide 1002-K6] | 0.33 |
| 1018-Q8: single substituted 1018 peptide (VRLIVAVQIWRR-NH2) [Peptide 1018-Q8] | 0.10 |

same assay, conditions: Table 12; cells stimulated with 10 ng/ml LPS; LPS alone 1313 (HH2 derivatives), 1927 (1018 derivatives), 2455 (1002 and hybrid peptides) pg/ml

| Substance | IL1β Production [pg/mL] |
| --- | --- |
| 1002-A6: single substituted 1002 peptide (VQRWLAVWRIRK-NH2) [Peptide 1002-A6] | 382 |
| 1018-Q12: single substituted 1018 peptide (VRLIVAVRIWRQ-NH2) [Peptide 1018-Q12] | 655 |
| HH2C-HH2N: derivative of HH2, 1002 and 1018 made by SPOT synthesis (VAVIRAVQLRIR-NH2) | 769 |
| HH2-I4: single substituted HH2 peptide (VQLIIRVAVIRA-NH2) | 760 |
| HH2-G8: single substituted HH2 peptide (VQLRIRVGVIRA-NH2) | 1344 |
| HH2-V4: single substituted HH2 peptide (VQLVIRVAVIRA-NH2) | 877 |
| 1018-K7: single substituted 1018 peptide (VRLIVAKRIWRR-NH2) [Peptide 1018-K7] | 1222 |
| HH2-A7: single substituted HH2 peptide (VQLRIRAAVIRA-NH2) | 1713 |
| 1018-A4: single substituted 1018 peptide (VRLAVAVRIWRR-NH2) [Peptide 1018-A4] | 521 |
| 1002-L9: single substituted 1002 peptide (VQRWLIVWLIRK-NH2) [Peptide 1002-L9] | 127 |
| 1018-K3: single substituted 1018 peptide (VRKIVAVRIWRR-NH2) [Peptide 1018-K3] | 1489 |
| HH2-R3: single substituted HH2 peptide (VQRRIRVAVIRA-NH2) | 1746 |
| HH2-Q4: single substituted HH2 peptide (VQLQIRVAVIRA-NH2) | 817 |
| 1002-K6: single substituted 1002 peptide (VQRWLKVWRIRK-NH2) [Peptide 1002-K6] | 808 |
| 1018-Q8: single substituted 1018 peptide (VRLIVAVQIWRR-NH2) [Peptide 1018-Q8] | 127 |

tested on: human peripheral blood mononuclear cells (MCP-1); test: SPOT-synthesized derivative screen: production of chemokine MCP-1; type: cell-based; conditions: Table 12; No LPS; human PBMC, peptide at ~18-24 μM
Method in brief: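 PBMC from heparinized healthy-donor venous blood, Ficoll-separated, cultured at 0.75 to 1×10^6 cells/ml, 37 °C, 5% CO2, under the treatment regimens. MCP-1 in cell-free supernatants measured by capture ELISA.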

| Substance | Fold increase in MCP1 cf. untreated cells |
| --- | --- |
| 1002-A6: single substituted 1002 peptide (VQRWLAVWRIRK-NH2) [Peptide 1002-A6] | 3.0 |
| 1018-Q12: single substituted 1018 peptide (VRLIVAVRIWRQ-NH2) [Peptide 1018-Q12] | 0.8 |
| HH2C-HH2N: derivative of HH2, 1002 and 1018 made by SPOT synthesis (VAVIRAVQLRIR-NH2) | 2.0 |
| HH2-I4: single substituted HH2 peptide (VQLIIRVAVIRA-NH2) | 11 |
| HH2-G8: single substituted HH2 peptide (VQLRIRVGVIRA-NH2) | 1.9 |
| HH2-V4: single substituted HH2 peptide (VQLVIRVAVIRA-NH2) | 20 |
| 1018-K7: single substituted 1018 peptide (VRLIVAKRIWRR-NH2) [Peptide 1018-K7] | 1.5 |
| HH2-A7: single substituted HH2 peptide (VQLRIRAAVIRA-NH2) | 1.3 |
| 1018-A4: single substituted 1018 peptide (VRLAVAVRIWRR-NH2) [Peptide 1018-A4] | 0.5 |
| 1002-L9: single substituted 1002 peptide (VQRWLIVWLIRK-NH2) [Peptide 1002-L9] | 1.8 |
| 1018-K3: single substituted 1018 peptide (VRKIVAVRIWRR-NH2) [Peptide 1018-K3] | 49 |
| HH2-R3: single substituted HH2 peptide (VQRRIRVAVIRA-NH2) | 60 |
| HH2-Q4: single substituted HH2 peptide (VQLQIRVAVIRA-NH2) | 2.4 |
| 1002-K6: single substituted 1002 peptide (VQRWLKVWRIRK-NH2) [Peptide 1002-K6] | 0.9 |
| 1018-Q8: single substituted 1018 peptide (VRLIVAVQIWRR-NH2) [Peptide 1018-Q8] | 0.4 |

same assay, conditions: Table 12; No LPS; human PBMC, peptide at ~18-24 μM; background subtracted 139 (HH2 derivatives), 170 (1018 derivatives), 242 (1002 and hybrid peptides) pg/ml

| Substance | MCP1 [pg/mL] |
| --- | --- |
| 1002-A6: single substituted 1002 peptide (VQRWLAVWRIRK-NH2) [Peptide 1002-A6] | 485.3 |
| 1018-Q12: single substituted 1018 peptide (VRLIVAVRIWRQ-NH2) [Peptide 1018-Q12] | -28 |
| HH2C-HH2N: derivative of HH2, 1002 and 1018 made by SPOT synthesis (VAVIRAVQLRIR-NH2) | 239.0 |
| HH2-I4: single substituted HH2 peptide (VQLIIRVAVIRA-NH2) | 1669 |
| HH2-G8: single substituted HH2 peptide (VQLRIRVGVIRA-NH2) | 157 |
| HH2-V4: single substituted HH2 peptide (VQLVIRVAVIRA-NH2) | 3216 |
| 1018-K7: single substituted 1018 peptide (VRLIVAKRIWRR-NH2) [Peptide 1018-K7] | 92 |
| HH2-A7: single substituted HH2 peptide (VQLRIRAAVIRA-NH2) | 59 |
| 1018-A4: single substituted 1018 peptide (VRLAVAVRIWRR-NH2) [Peptide 1018-A4] | -88 |
| 1002-L9: single substituted 1002 peptide (VQRWLIVWLIRK-NH2) [Peptide 1002-L9] | 199.1 |
| 1018-K3: single substituted 1018 peptide (VRKIVAVRIWRR-NH2) [Peptide 1018-K3] | 8203 |
| HH2-R3: single substituted HH2 peptide (VQRRIRVAVIRA-NH2) | 9987 |
| HH2-Q4: single substituted HH2 peptide (VQLQIRVAVIRA-NH2) | 246 |
| 1002-K6: single substituted 1002 peptide (VQRWLKVWRIRK-NH2) [Peptide 1002-K6] | -36.2 |
| 1018-Q8: single substituted 1018 peptide (VRLIVAVQIWRR-NH2) [Peptide 1018-Q8] | -104 |
